Patent US11191874B2, “Biomaterials for neuronal implants and use of said biomaterials in the diagnosis and therapy of neuronal diseases” (Albert-Ludwigs-U[…], priority 2014, dated 2021)
“Also recorded” adds a separate entry of the source. Where no end group is shown, it is not given here.

Experiments:
[1] = test system: rat hippocampal neurons and astrocytes; experiment: Neuron-astrocyte association in mixed primary hippocampal cultures; format: cell-based; conditions: GsMTx4 5 μM, smooth glass substrates
Source text: The inventors therefore evaluated the response of mixed primary cultures of rat hippocampal neurons and astrocytes to the different roughness regimes.
An also remarkable finding was that nanoroughness appeared to modulate the relationship, and dependency of neurons on astrocytes. […] After 5 days, the percent neurons that were associated with astrocytes on the 32 nm Rq surface was around 15%, which was 1.5-2 fold lower than those on other Rq's, which ranged from 20-40%, and 6 fold lower than that on the smooth glass substrate (FIG. 4c). That is, in comparison to the other Rq's, over twice as many neurons on 32 nm Rq surface were surviving independently of astrocytes. At 6 weeks however, the percent of neurons that were surviving independently of astrocytes on the 32 nm Rq was over 6 fold greater in comparison to the other Rq's. While over 90% of neurons were associated with astrocytes on other roughnesses, only 15% of neurons were associated with astrocytes on 32 nm Rq (FIG. 4d). […]
Cell density/composition analysis: In order to analyze the cell density and composition of mixed neuron/astrocyte cultures on the different substrates at the end of the experiments, MAP-2^+, GFAP^+ and Tuj-1^+ cells were counted in 4 separately isolated cultures in 10 random image sections and on two different substrates of each isolated culture.

hippocampal neurons = experiment: Calcium sensitive FURA-2 imaging of hippocampal neurons after KCl depolarization; format: cell-based, rat; conditions: GsMTx4, KCl depolarization
Protocol: Calcium sensitive imaging: Intracellular calcium levels were measured with the cell permeable probe FURA-2-acetoxymethyl ester (Invitrogen Life Technologies GmbH). Cells were exposed to 5 μM FURA-2-AMin DMSO (final concentration of 0.2%) for 45 minutes in a humidified incubator at 37° C. Increase in intracellular calcium levels following depolarization with 50 mM KCl was analyzed by the change in the absorption and emission spectra of FURA-2 upon Ca^2+ binding using a custom-built perfusion chamber mounted to a Zeiss Observer Z1 and the ZEN blue software (Zeiss AG, Germany).The rate of intracellular Ca^2+ increase was calculated as the slope of the linear portion of the increase in FURA-2 intensity.

GMB tumor spheroids = experiment: U-87 spheroid Matrigel invasion assay; format: cell-based; conditions: GsMTx4 in culture media, 3D matrix
Protocol: Spheroids (which resemble a GBM tumor in vitro) are formed via the hanging drop procedure. For this, cells were seeded into a carboxymethylcellulose solution (with very high viscosity) and pipetted on the inner side of the lid of a cell culture plate. After reversing the lid and putting it back onto the cell culture plate, the cells are hanging in a drop of carboxymethylcellulose. Because of the high viscosity of the media and no possibility to attach, the cells form spheroids. […] During incubation cells start migrating out of the spheroid and invading the 3D matrix. The higher the invasive potential of the cells, the more they will invade the 3D matrix.

Q: For “GsMTx4 (GCLEFWWKCNPNDDKCCRPKLKCSKLFKLCNFSF; ends and bridges not checked; cysteine pairing not given here)”, which “neuron-astrocyte coupling upon inhibition of Piezo-1 (FAM38A)” value [1] is on record?
A: The value was “neurons decouple from astrocytes even on smooth glass substrates; also recorded: decoupling of hippocampal neurons from astrocytes”.

Q: And the “FURA-2 intensity profile and rate of calcium influx upon depolarization, smooth glass versus Rq=32 nm, upon inhibition of Piezo-1” value (hippocampal neurons)?
A: The value was “is lost upon inhibition of Piezo-1; also recorded: identical”.

Q: And the “formation of sprouts from tumor spheroids (invasiveness)” value (GMB tumor spheroids)?
A: Its value is “significantly reduced; also recorded: less invasive potential”.
